Experimental data: US20250304549A1, “HYDROXYAMIDE DERIVATIVE AND USE THEREOF” (SICHUAN HUIYU PHARMACEUTICAL CO., LTD., priority 2022, published 2025)
Where a name gives a salt, the structure may show the parent alone.

Key:
pan-HDAC = assay: In vitro enzyme inhibition assay - HDAC (HDAC-Glo I/II), pan-HDAC; format: biochemical
Outline: (§1)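 Inhibition was measured with the HDAC-Glo I/II luminescent assay, testing compound as an 8-point, 5-fold dilution series from a 1 mM DMSO stock. Luminescence (RLU) was normalized to no-inhibitor and no-enzyme controls, and IC50 was derived by four-parameter variable-slope fitting.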

NCI-H526 cells = assay: In vitro cell inhibition assay - NCI-H526 cell proliferation (CellTiter-Glo); format: cell-based; details: Homo sapiens, NCI-H526, 120 h, H526 small cell lung cancer cell proliferation, 5 days
Outline: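 NCI-H526 cells plated at 1×10^3 per well overnight, then treated with 8 concentrations (5-fold dilutions) in RPMI-640 with 10% FBS for 5 days at 37° C., 5% CO2. Viable cells quantified by CellTiter-Glo luminescence; IC50 fitted from inhibition rates relative to no-inhibitor and no-cell controls.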

DU145 cells = assay: In vitro cell inhibition assay - DU145 cell proliferation (CellTiter-Glo); format: cell-based; details: Homo sapiens, DU-145, Du145 prostate cancer cell proliferation
Outline: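 Viability read-out was CellTiter-Glo luminescence after a 6-day, 37° C exposure of DU145 cells (1×10^3/well, 10% FBS RPMI-640) to 8 compound concentrations in 5-fold steps.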

NCI-H69 cells = assay: In vitro cell inhibition assay - NCI-H69 cell proliferation (CellTiter-Glo); format: cell-based; details: Homo sapiens, NCI-H69, H69 small cell lung cancer cell proliferation
Outline: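 Proliferation was assessed after a 7-day compound treatment of cells seeded at 1×10^3 per well. IC50 values came from fitting inhibition rates derived from CellTiter-Glo luminescence.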

HDAC1 = HDAC1 (Homo sapiens (Human), UniProt Q13547); assay: In vitro enzyme inhibition assay - HDAC (HDAC-Glo I/II), HDAC1; format: biochemical; details: read-out: HDAC IC50 (nM) HDAC 1
Outline: as §1

LSD1 = LSD1 (Homo sapiens (Human), UniProt O60341); assay: In vitro enzyme inhibition assay - LSD1 (HTRF); format: biochemical
HDAC8 = HDAC8 (Homo sapiens (Human), UniProt Q9BY41); assay: In vitro enzyme inhibition assay - HDAC (HDAC-Glo I/II), HDAC8; format: biochemical; details: read-out: HDAC IC50 (nM) HDAC 8
Outline: as §1

NCI-H1417 cells = assay: In vitro cell inhibition assay - H1417 cell proliferation (CellTiter-Glo); format: cell-based; details: Homo sapiens, NCI-H1417, H1417 small cell lung cancer cell proliferation
Outline: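 Cells exposed to 8 compound concentrations (5-fold dilutions) in BEGM with 10% FBS for 7 days at 37° C., 5% CO2. Viable cells measured by CellTiter-Glo luminescence; inhibition versus no-inhibitor and no-cell controls, IC50 fitted.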

Chain of HDAC8 (Q9BY41 whole entry): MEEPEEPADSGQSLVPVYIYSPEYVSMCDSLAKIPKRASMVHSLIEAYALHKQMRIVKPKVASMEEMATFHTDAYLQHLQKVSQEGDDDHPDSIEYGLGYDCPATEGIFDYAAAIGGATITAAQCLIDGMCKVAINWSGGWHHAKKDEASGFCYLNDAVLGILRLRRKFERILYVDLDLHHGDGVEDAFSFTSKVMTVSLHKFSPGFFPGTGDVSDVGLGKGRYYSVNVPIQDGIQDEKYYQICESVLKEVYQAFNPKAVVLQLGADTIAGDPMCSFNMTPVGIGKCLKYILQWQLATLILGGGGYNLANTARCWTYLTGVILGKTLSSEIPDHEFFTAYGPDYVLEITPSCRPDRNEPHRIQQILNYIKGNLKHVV
Chain of HDAC1 (Q13547 whole entry): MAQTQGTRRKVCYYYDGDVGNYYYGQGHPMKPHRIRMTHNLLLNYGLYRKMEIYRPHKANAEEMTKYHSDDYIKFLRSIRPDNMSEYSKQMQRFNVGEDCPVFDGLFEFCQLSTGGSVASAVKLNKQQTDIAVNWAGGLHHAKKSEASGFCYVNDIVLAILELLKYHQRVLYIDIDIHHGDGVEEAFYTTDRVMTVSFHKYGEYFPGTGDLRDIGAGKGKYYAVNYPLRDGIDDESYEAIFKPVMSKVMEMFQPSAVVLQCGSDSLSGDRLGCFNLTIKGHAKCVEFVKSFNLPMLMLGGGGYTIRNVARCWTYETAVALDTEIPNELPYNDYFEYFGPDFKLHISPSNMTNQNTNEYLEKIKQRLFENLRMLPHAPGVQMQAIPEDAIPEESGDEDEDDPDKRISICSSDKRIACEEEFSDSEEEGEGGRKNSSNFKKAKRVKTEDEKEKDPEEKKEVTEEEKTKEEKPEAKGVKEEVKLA

Row | IC50 (pan-HDAC) | IC50 (NCI-H526 cells) | IC50 (DU145 cells) | IC50 (NCI-H69 cells) | IC50 (HDAC1) | IC50 (LSD1) | IC50 (HDAC8) | IC50 (NCI-H1417 cells) | Structure (SMILES)
1 | 6.04 nM | 22.9 nM | 63.5 nM | 7.01 nM | 0.52 nM | 27.8 nM | 107 nM | 5.43 nM | N#Cc1ccc(-c2c(-c3ccc(O)c(O)c3)cnc(N3CCC(NCc4ccc(/C=C/C(=O)NO)cc4)CC3)c2C#N)cc1F [Example 137, (E)-3-(4-(((1-(3-Cyano-4-(4-cyano-3-fluorophenyl)-5-(3,4-dihydroxyphenyl)pyridin-2-yl)piperidin-4-yl)amino)methyl)phenyl)-N-hydroxyacrylamide hydrochloride]
2 | 1.7 nM | 18.1 nM | 23.7 nM | 16.8 nM | 1.25 nM | 0.1 nM | 111 nM | 1.03 nM | CC(C)(O)COc1ccc(-c2cnc(N3CCC(NCc4ccc(/C=C/C(=O)NO)cc4)CC3)c(C#N)c2-c2ccc(C#N)c(F)c2)cc1O [Example 143, (E)-3-(4-(((1-(3-Cyano-4-(4-cyano-3-fluorophenyl)-5-(3-hydroxy-4-(2-hydroxy-2-methylpropoxy)phenyl)pyridin-2-yl)piperidin-4-yl)amino)methyl)phenyl)-N-hydroxyacrylamide formate]
3 | 0.86 nM | 8.4 nM | 9.28 nM | 11.2 nM | 0.21 nM | 1.07 nM | 91.6 nM | 11.2 nM | COc1ccc(-c2cnc(N3CCC(NCc4ccc(/C=C/C(=O)NO)cc4)CC3)c(C)c2-c2ccc(C#N)c(F)c2)cc1O [Example 144, (E)-3-(4-(((1-(4-(4-Cyano-3-fluorophenyl)-5-(3-hydroxy-4-methoxyphenyl)-3-methylpyridin-2-yl)piperidin-4-yl)amino)methyl)phenyl)-N-hydroxyacrylamide hydrochloride]
4 | 1.3 nM | 9.84 nM | 9.26 nM | 16.9 nM | 0.21 nM | 0.59 nM | 89.3 nM | 5.53 nM | COc1ccc(-c2cnc(N3CCC(NCc4ccc(/C=C/C(=O)NO)cc4)CC3)c(C#N)c2-c2ccc([N+](=O)[O-])cc2)cc1O [Example 150, (E)-3-(4-(((1-(3-Cyano-5-(3-hydroxy-4-methoxyphenyl)-4-(4-nitrophenyl)pyridin-2-yl)piperidin-4-yl)amino)methyl)phenyl)-N-hydroxyacrylamide formate]

More lines, now with the values behind:

Row | Structure (SMILES) | IC50 (pan-HDAC) | IC50 (NCI-H526 cells) | IC50 (DU145 cells) | IC50 (NCI-H69 cells) | IC50 (HDAC1) | IC50 (LSD1) | IC50 (HDAC8) | IC50 (NCI-H1417 cells)
5 | N#Cc1ccc(-c2c(-c3ccc(Br)c(O)c3)cnc(N3CCC(NCc4ccc(/C=C/C(=O)NO)cc4)CC3)c2C#N)cc1F [Example 127, (E)-3-(4-(((1-(5-(4-Bromo-3-hydroxyphenyl)-3-cyano-4-(4-cyano-3-fluorophenyl)pyridin-2-yl)piperidin-4-yl)amino)methyl)phenyl)-N-hydroxyacrylamide formate] | 12.4 nM | 15.4 nM | 15.5 nM | 8.85 nM | 5.82 nM | 1.2 nM | 423 nM | 2.65 nM
6 | COc1cc(F)c(-c2cnc(N3CCC(NCc4ccc(/C=C/C(=O)NO)cc4)CC3)c(C#N)c2-c2ccc(C#N)c(F)c2)cc1O [Example 130, (E)-3-(4-((1-(3-Cyano-4-(4-cyano-3-fluorophenyl)-5-(2-fluoro-5-hydroxy-4-methoxyphenyl)pyridin-2-yl)piperidin-4-yl)amino)methyl) phenyl)-N-hydroxyacrylamide formate] | 6.13 nM | 22.8 nM | 25 nM | 25.2 nM | 0.77 nM | 1.89 nM | 220 nM | 1.09 nM
7 | N#Cc1ccc(-c2c(-c3ccc(CO)c(O)c3)cnc(N3CCC(NCc4ccc(/C=C/C(=O)NO)cc4)CC3)c2C#N)cc1F [Example 131, (E)-3-(4-(((1-(3-Cyano-4-(4-cyano-3-fluorophenyl)-5-(3-hydroxy-4-(hydroxymethyl)phenyl)pyridin-2-yl)piperidin-4-yl)amino)methyl)phenyl)-N-hydroxyacrylamide formate] | 1.57 nM | 3.54 nM | 7.09 nM | 2.59 nM | 0.22 nM | 1.31 nM | 46.6 nM | 0.62 nM
8 | COc1ccc(-c2cnc(N3CCC(NCc4cnc(/C=C/C(=O)NO)cn4)CC3)c(C#N)c2-c2ccc(C#N)c(F)c2)cc1O [Example 133, (E)-3-(5-(((1-(3-Cyano-4-(4-cyano-3-fluorophenyl)-5-(3-hydroxy-4-methoxyphenyl)pyridin-2-yl)piperidin-4-yl)amino)methyl)pyrazin-2-yl)-N-hydroxyacrylamide trifluoroacetate] | 11.8 nM | 45.8 nM | 128 nM | 25.5 nM | 1.45 nM | 22 nM | 140 nM | 5.42 nM
9 | COc1ccc(-c2cnc(N3CCC(NCc4ccc(/C=C/C(=O)NO)cc4)CC3)c(C#N)c2-c2ccc(C#N)cc2F)cc1O [Example 134, (E)-3-(4-(((1-(3-Cyano-4-(4-cyano-2-fluorophenyl)-5-(3-hydroxy-4-methoxyphenyl)pyridin-2-yl)piperidin-4-yl)amino)methyl)phenyl)-N-hydroxyacrylamide formate] | 3.55 nM | 13.8 nM | 20.3 nM | 8.37 nM | 0.32 nM | 13.6 nM | 46 nM | 5.1 nM
10 | COc1ccc(-c2cnc(N3CCC(NCc4ncc(/C=C/C(=O)NO)cn4)CC3)c(C#N)c2-c2ccc(C#N)c(F)c2)cc1O [Example 135, (E)-3-(2-(((1-(3-Cyano-4-(4-cyano-3-fluorophenyl)-5-(3-hydroxy-4-methoxyphenyl)pyridin-2-yl)piperidin-4-yl)amino)methyl)pyrimidin-5-yl)-N-hydroxyacrylamide formate] | 39.7 nM | 200 nM | 1580 nM | 199 nM | 17.3 nM | 3.16 nM | 1010 nM | 6 nM
